# Assay results published in patent US20060189688A1 (priority 2003, published 2006).
# Tests used:
# [1] = tested on: human influenza A virus NWS/33, H1N1; type: cell-based
# [2] = tested on: avian influenza A virus Ulster/73, H7N1; type: cell-based; conditions: A/Ulster/73, H7N1 strain
# [3] = tested on: virus-specific receptors located on red blood cells; set-up: species or system human; conditions: red blood cells used for the haemagglutination assay
# [4] = tested on: virus-induced polypeptides of A/NWS/33 in LLC-MK2 cells; type: cell-based, influenza A virus; conditions: MESNA 20 mg/ml, effect particularly evident at 1, 2, 5, 1.0, 15 mg/ml
# [5] = tested on: human influenza A virus NWS/33, H1N1; type: cell-based; remark: listed apart in the source
# [6] = tested on: human influenza A virus NWS/33, H1N1; type: cell-based; remark: listed apart in the source
# [7] = tested on: viral haemagglutinin HA antigen on the cellular surface of infected LLC-MK2 cells; type: cell-based, influenza A virus; conditions: 24 and 48 hours post infection; treated versus untreated infected LLC-MK2 cells
Compound,antiviral action in comparison studies (all experiments repeated) [1],results with avian strain compared with human influenza virus A/NWS/33 [2],interference with virus-specific receptors on red blood cells [3],synthesis of virus-induced polypeptides (early and late viral proteins) [4],time of addition up to which MESNA is effective [5],reversibility of inhibition of the production of viral particles [6],"virus production (haemagglutination, presence/absence of mature viral particles) [1]",haemagglutinin molecules on the surface of infected cells (haemadsorption values) [7]
O=C([O-])CN(CCN(CC(=O)[O-])CC(=O)[O-])CC(=O)[O-].[Na+].[Na+].[Na+].[Na+] [sodium edetate],not able to exert an antiviral action,–,–,–,–,–,–,–
"O=S(=O)([O-])CCS.[Na+] [MESNA, Sodium 2-mercaptoethanesulfonate]",–,completely reproducible and absolutely comparable,did not interfere,marked reduction,≤ 6 hours post infection,irreversible inhibition,able to suppress virus production,"great reduction, if not the absence"
